Read-outs that look alike come from different tables or passages of the source.
Columns and labels:
NCI-H460 = experiment: Inhibition test on cell proliferation (MTT), NCI-H460; assay type: cell-based, human
Protocol: (§1) Tumor cells (NCI-H460, BxPC-3, HT-29, HCC-LM3) in the logarithmic growth phase were digested, centrifuged, and the supernatants were removed. Cells were resuspended by adding fresh culture medium, and counted using a cell counting plate. 100 μL of culture medium (containing cells) was added to a 96-well plate according to the standard of 2000 to 6000 cells per well and incubated in an incubator (37° C., 5% CO2) for 24 hours. After the cells were completely adhered to the wall, the test sample and Plinabulin were diluted to different concentrations using fresh culture medium, and 4 wells were set for each concentration. After 72 hours of drug treatment, the culture medium was removed, and 20 μL of MTT at a concentration of 5 mg/mL was added to each well. After 3-4 hours in the incubator, the MTT was discarded, and 100 μL of DMSO was added to each well, and placed in a 96-well plate shaker to completely dissolve the purple formazan. Subsequently, the absorbance (OD value) was detected at a wavelength of 490 nm using a microplate reader. The experiment also required setting up zero-setting wells (blank culture medium, MTT, DMSO). Cell inhibition rate=1−(OD value of drug-dosed group−OD value of zero-setting group)/(OD value of blank group−OD value of zero-setting group)×100%.

BxPC-3 = experiment: Inhibition test on cell proliferation (MTT), BxPC-3; assay type: cell-based, human; settings: read-out: IC50 (nM) BxPC-3
Protocol: as §1

[1] = Homo sapiens, NCI-H460, 72 h, 72 hours of drug treatment, MTT, read-out: IC50 (nM) NCI-H460
[2] = Homo sapiens, BXPC-3, 72 h, 72 hours of drug treatment, MTT
[3] = Homo sapiens, NCI-H460, 72 h, read-out: IC50 (nM) NCI-H460, 72 hours of drug treatment, MTT

SMILES | IC50 (NCI-H460; [1]) [nM] | IC50 (BxPC-3; [2]) [nM] | also measured
CC(C)c1c(/C=c2\[nH]c(=O)/c(=C/c3cccc(C(=O)c4ccc(F)cc4)c3)[nH]c2=O)ncn1CCCN1CCN(C(=O)OC(C)(C)C)CC1 [PLN-2-15, (3Z,6Z)-3-(3-(p-fluorobenzoyl)phenyl)methylene-6-((5-isopropyl-1-(3-N-tert-butoxycarbonylpiperazinyl)propylimidazol-4-yl)methylene)piperazine-2,5-dione] | 8.01 ± 1.24 | 6.77 ± 0.08 | –
CC(C)c1c(/C=c2\[nH]c(=O)/c(=C/c3cccc(C(=O)c4ccc(F)cc4)c3)[nH]c2=O)ncn1CCCN1CCN(C(=O)NC(C)(C)C)CC1 [PLN-2-45, (3Z,6Z)-3-(3-(p-Fluorobenzoyl)phenyl)methylene-6-((5-isopropyl-1-(3-N-tert-butylaminocarbonylpiperazinyl)propylimidazol-4-yl)methylene)piperazine-2,5-dione] | 6.43 ± 1.98 | 1.79 ± 0.49 | –
CC(C)c1c(/C=c2\[nH]c(=O)/c(=C/c3cccc(C(=O)c4ccc(F)cc4)c3)[nH]c2=O)ncn1CCCN1CCN(C(=O)c2ccccc2)CC1 [PLN-2-41, (3Z,6Z)-3-(3-(p-fluorobenzoyl)phenyl)methylene-6-((5-isopropyl-1-(3-N-benzoylpiperazinyl)propylimidazol-4-yl)methylene)piperazine-2,5-dione] | 5.55 ± 1.68 | 3.25 ± 2.13 | –
CC(C)c1c(/C=c2\[nH]c(=O)/c(=C/c3cccc(C(=O)c4ccc(F)cc4)c3)[nH]c2=O)ncn1CCCN1CCN(C(=O)NC2CCCCC2)CC1 [PLN-2-47, (3Z,6Z)-3-(3-(p-fluorobenzoyl)phenyl)methylene-6-((5-isopropyl-1-(3-N-cyclohexylaminocarbonylpiperazinyl)propylimidazol-4-yl)methylene)piperazine-2,5-dione] | 6.56 ± 0.32 | 3.62 ± 0.48 | –
CN1CCN(CCCn2cnc(/C=c3\[nH]c(=O)/c(=C/c4cccc(Oc5ccc(F)cc5)c4)[nH]c3=O)c2C2CC2)CC1 [PLN-2-23] | 158 ± 25.7 | – | –
CCC(=O)N1CCN(CCCn2cnc(/C=c3\[nH]c(=O)/c(=C/c4cccc(C(=O)c5ccc(F)cc5)c4)[nH]c3=O)c2C(C)C)CC1 [PLN-2-31, (3Z,6Z)-3-(3-(p-fluorobenzoyl)phenyl)methylene-6-((5-isopropyl-1-(3-N-propionylpiperazinyl)propylimidazol-4-yl)methylene)piperazine-2,5-dione] | 6.93 ± 0.96 | 2.48 ± 0.57 | –
O=c1[nH]/c(=C\c2ncn(CCCN3CCNCC3)c2C2CC2)c(=O)[nH]/c1=C\c1cccc(Oc2ccc(F)cc2)c1 [PLN-2-19-1] | – | – | IC50 (NCI-H460; read-out: IC50 (nM) NCI-H460, 72 hours of drug treatment, MTT): 204 ± 4.24 nM
CC(=O)N1CCN(CCCn2cnc(/C=c3\[nH]c(=O)/c(=C/c4cccc(C(=O)c5ccc(F)cc5)c4)[nH]c3=O)c2C(C)C)CC1 [PLN-2-30, (3Z,6Z)-3-(3-(p-fluorobenzoyl)phenyl)methylene-6-((5-isopropyl-1-(3-N-acetylpiperazinyl)propylimidazol-4-yl)methylene)piperazine-2,5-dione] | 3.98 ± 0.33 | 2.3 ± 0.08 | –
CC(C)c1c(/C=c2\[nH]c(=O)/c(=C/c3cccc(C(=O)c4ccc(F)cc4)c3)[nH]c2=O)ncn1CCCN1CCN(C(=O)C23CC4CC(CC(C4)C2)C3)CC1 [PLN-2-39, (3Z,6Z)-3-(3-(p-fluorobenzoyl)phenyl)methylene-6-((5-isopropyl-1-(3-N-adamantanecarbonylpiperazinyl)propylimidazol-4-yl)methylene)piperazine-2,5-dione] | – | – | IC50 (NCI-H460; [3]): 37.2 ± 3.61 nM
CC(C)c1c(/C=c2\[nH]c(=O)/c(=C/c3cccc(C(=O)c4ccc(F)cc4)c3)[nH]c2=O)ncn1CCCN1CCN(C(=O)C2CC2)CC1 [PLN-2-35, (3Z,6Z)-3-(3-(p-fluorobenzoyl)phenyl)methylene-6-((5-isopropyl-1-(3-N-cyclopropanecarbonylpiperazinyl)propylimidazol-4-yl)methylene)piperazine-2,5-dione] | 5.28 ± 0.71 | 2.23 ± 2.2 | –
CC(C)c1c(/C=c2\[nH]c(=O)/c(=C/c3cccc(Oc4ccc(F)cc4)c3)[nH]c2=O)ncn1CCCN1CCN(C(=O)OC(C)(C)C)CC1 [PLN-2-17, (3Z,6Z)-3-(3-(4-Fluorophenoxy)phenyl)methylene-6-((5-isopropyl-1-(3-N-tert-butoxycarbonylpiperazinyl)propylimidazol-4-yl)methylene)piperazine-2,5-dione] | 41.8 ± 2.27 | 21.1 ± 2.41 | –
CC(C)NC(=O)N1CCN(CCCn2cnc(/C=c3\[nH]c(=O)/c(=C/c4cccc(C(=O)c5ccc(F)cc5)c4)[nH]c3=O)c2C(C)C)CC1 [PLN-2-44, (3Z,6Z)-3-(3-(p-fluorobenzoyl)phenyl)methylene-6-((5-isopropyl-1-(3-N-isopropylaminocarbonylpiperazinyl)propylimidazol-4-yl)methylene)piperazine-2,5-dione] | 8.68 ± 0.78 | 3.84 ± 0.12 | –
CC(C)c1c(/C=c2\[nH]c(=O)/c(=C/c3ccc(F)cc3)[nH]c2=O)ncn1CCCN1CCOCC1 [PLN-2-11, (3Z,6Z)-3-p-fluorobenzylidene-6-((5-isopropyl-1-(−3-morpholinyl)propylimidazol-4-yl)methylene)piperazine-2,5-dione] | 234 ± 25.7 | – | –
CC(C)c1c(/C=c2\[nH]c(=O)/c(=C/c3cccc(C(=O)c4ccc(F)cc4)c3)[nH]c2=O)ncn1CCCN1CCN(S(=O)(=O)c2ccccc2)CC1 [PLN-2-43, (3Z,6Z)-3-(3-(p-fluorobenzoyl)phenyl)methylene-6-((5-isopropyl-1-(3-N-phenylmethylsulfonylpiperazinyl)propylimidazol-4-yl)methylene)piperazine-2,5-dione] | 11.1 ± 0.9 | – | –
CC(C)c1c(/C=c2\[nH]c(=O)/c(=C/c3cccc(C(=O)c4ccc(F)cc4)c3)[nH]c2=O)ncn1CCCN1CCN(c2ccc(F)cc2)CC1 [PLN-2-26, (3Z,6Z)-3-(3-(p-fluorobenzoyl)phenyl)methylene-6-((5-isopropyl-1-(3-N-(p-fluorophenyl)piperazinyl)propylimidazol-4-yl)methylene)piperazine-2,5-dione] | 50.1 ± 0.69 | – | –
CCC(CC)C(=O)N1CCN(CCCn2cnc(/C=c3\[nH]c(=O)/c(=C/c4cccc(C(=O)c5ccc(F)cc5)c4)[nH]c3=O)c2C(C)C)CC1 [PLN-2-34, (3Z,6Z)-3-(3-(p-fluorobenzoyl)phenyl)methylene-6-((5-isopropyl-1-(3-N-(2-ethylbutyryl)piperazinyl)propylimidazol-4-yl)methylene)piperazine-2,5-dione] | 20.1 ± 3.67 | 17.5 ± 0.27 | –
CC(C)c1c(/C=c2\[nH]c(=O)/c(=C/c3cccc(C(=O)c4ccc(F)cc4)c3)[nH]c2=O)ncn1CCCN1CCN(S(C)(=O)=O)CC1 [PLN-2-42, (3Z,6Z)-3-(3-(p-fluorobenzoyl)phenyl)methylene-6-((5-isopropyl-1-(3-N-methylsulfonylpiperazinyl)propylimidazol-4-yl)methylene)piperazine-2,5-dione] | – | – | IC50 (NCI-H460; [3]): 6.59 ± 1.29 nM; IC50 (BxPC-3; Homo sapiens, BXPC-3, 72 h): 3.38 ± 0.53 nM
CC(C)c1c(/C=c2\[nH]c(=O)/c(=C/c3cccc(C(=O)c4ccc(F)cc4)c3)[nH]c2=O)ncn1CCCN1CCN(C(=O)C2CCCCC2)CC1 [PLN-2-38, (3Z,6Z)-3-(3-(p-fluorobenzoyl)phenyl)methylene-6-((5-isopropyl-1-(3-N-cyclohexanecarbonylpiperazinyl)propylimidazol-4-yl)methylene)piperazine-2,5-dione] | 7.3 ± 0.44 | – | –
CC1CN(CCCn2cnc(/C=c3\[nH]c(=O)/c(=C/c4cccc(C(=O)c5ccc(F)cc5)c4)[nH]c3=O)c2C2CC2)CC(C)O1 (stereo not shown) [PLN-2-14, (3Z,6Z)-3-(3-(p-fluorobenzoyl)phenyl)methylene-6-((5-cyclopropyl-1-((2,6-dimethyl)-3-morpholinyl)propylimidazol-4-yl)methylene)piperazine-2,5-dione] | 9.33 ± 0.54 | 9.33 ± 0.45 | –
CC1CN(CCCn2cnc(/C=c3\[nH]c(=O)/c(=C/c4cccc(C(=O)c5ccc(F)cc5)c4)[nH]c3=O)c2C(C)C)CC(C)O1 (stereo not shown) [PLN-2-13, (3Z,6Z)-3-(3-(p-fluorobenzoyl)phenyl)methylene-6-((5-isopropyl-1-((2,6-dimethyl)-3-morpholinyl)propylimidazol-4-yl)methylene)piperazine-2,5-dione] | – | – | IC50 (NCI-H460; 72 hours of drug treatment, MTT, read-out: IC50 (nM) NCI-H460): 8.2 ± 0.54 nM; IC50 (BxPC-3; 72 hours of drug treatment, MTT): 14.9 ± 2.62 nM
CC(C)c1c(/C=c2\[nH]c(=O)/c(=C/c3cccc(C(=O)c4ccc(F)cc4)c3)[nH]c2=O)ncn1CCCN1CCN(C(=O)C2CCCC2)CC1 [PLN-2-37, (3Z,6Z)-3-(3-(p-fluorobenzoyl)phenyl)methylene-6-((5-isopropyl-1-(3-N-cyclopentnecarbonylpiperazinyl)propylimidazol-4-yl)methylene)piperazine-2,5-dione] | – | – | IC50 (NCI-H460; [3]): 7.86 ± 1.37 nM; IC50 (BxPC-3; Homo sapiens, BXPC-3, 72 h): 6.23 ± 0.15 nM
CC(C)c1c(/C=c2\[nH]c(=O)/c(=C/c3cccc(C(=O)c4ccc(F)cc4)c3)[nH]c2=O)ncn1CCCN1CCN(Cc2ccccc2)CC1 [PLN-2-25, (3Z,6Z)-3-(3-(p-fluorobenzoyl)phenyl)methylene-6-((5-isopropyl-1-(3-N-benzylpiperazinyl)propylimidazol-4-yl)methylene)piperazine-2,5-dione] | 18.4 ± 2.95 | – | –
O=c1[nH]/c(=C\c2ncn(CCCN3CCNCC3)c2C2CC2)c(=O)[nH]/c1=C\c1cccc(Oc2ccc(F)cc2)c1 [PLN-2-19] | – | – | IC50 (NCI-H460; [3]): 213 ± 12.8 nM
